The text below walks through data of patent US5593970A, “Heterocyclic anthracycline analogs” (priority 1994, dated 1997).

In one experiment the test system is MATB.WT. The experiment is described as follows: Soft agar colony formation disk diffusion assay. Type of experiment: cell-based, rat. An excerpt: (§1) A more elaborate version of this fundamental assay, the soft agar colony formation disk diffusion assay was used. This assay defines the relative activity of one particular drug versus a tumoral cell line type. The effect of the test drug against tumoral cells could be measured by its inhibitory capacity against colony formation after the delivery of the compound, in different concentrations on an filter disk(4). A modified technique of this assay was used in order to investigate the antiproliferative activity of candidate compounds. Tumoral cells from solid tumors and ascitic lines were plated separately in a two layer agar matrix. Cell lines to be tested were suspended in an upper layer of 0.4% Noble agar (Difco#00142-01) in RPMI-1066 (Gibco#3201875) at a yield varying between 10^4 to 2×10^5 cells per 60 mm Petri dish. Plating efficiency was determined for each line in order to achieve an optimal number of colonies per dish. Plates were examined before drug administration to confirm a uniform dispersion of single cells. The bottom layer consisted of 0.8% Noble agar, 0.8% Tryptic Soy Broth (difco#0037001)in CMRL-1066/Fischer's. The bottom layers were used within 2 and 9 days of preparation. Plated dishes (bottom layer of agar, upper layer of cells and administered drug were incubated in humidified atmosphere at 37° C., 5% CO2 for 10-20 days depending upon the time necessary to observe adequate colonies (defined as a cell aggregate of more than 50 cells) both control and drug inhibited. Drugs were administered on a paper filter disk (Whatman No. 1) of 6.5 mm diameter placed on the upper layer at 1/3 distance from the edge of the dish. The anti-clonogenic activity of the compounds was measured as the zone of inhibition from the disk edge to the most proximal colonies. This zone of inhibition was checked on an inverted microscope (40×) and was measured with a micrometer mounted in the eyepiece. The ocular micrometer was calibrated with a stage micrometer set for a particular combination of ocular and objective lenses. […] We made a modification of the initial technique by not plating a solid tumor and a leukemia simultaneously in the same Petri dish. Anti-clonogenic tests performed on leukemia cell line have helped in the discovery of the majority of current clinically used cytostatic drugs. Our tests on solid tumor lines (animal or human) may help define active compounds with solid tumor specificity. […] Murine tumors were maintained IN VIVO in order to diminish the selection of subpopulations of cells normally present in the heterogenous IN VIVO tumor. The actual drug sensitivity assay was done IN VITRO. For these experiments cells from freshly excised tumors or from ascitic fluids were maintained in RPMI-1066. Both compounds were dissolved in DMSO (1 mg/100 ul) and brought to final volume (250 ul) with Millipore deionized sterile water. Further dilutions were made with […] volume of 25 ul of freshly prepared solution was placed on the filter disk and allowed to dry.

The next experiment deals with MATB/ADR. As to the kind of experiment: Soft agar colony formation disk diffusion assay. It is filed as cell-based, rat.
Excerpt: as §1
On the technique in general: In agar diffusion tests the substance spreads into inoculated agar from a disc or well.

The test system of another experiment is SKOV3. As to the kind of experiment: Microculture tetrazolium assay. Type of experiment: cell-based. Conditions: read-out: IC50.
For the next experiment, the system named is LOX. As to the kind of experiment: Microculture tetrazolium assay. As to conditions: read-out: IC50. It is filed as cell-based.
Experiment [1] relates to HT29. As to the kind of experiment: Microculture tetrazolium assay. Type of experiment: cell-based. Conditions: read-out: IC50.
A further experiment concerns T47D. As to the kind of experiment: Microculture tetrazolium assay. Type of experiment: cell-based. As to conditions: read-out: IC50.
In experiment [2] the test system is HT29. The experiment is described as follows: Soft agar colony formation disk diffusion assay. Type of experiment: cell-based, human. An excerpt: A more elaborate version of this fundamental assay, the soft agar colony formation disk diffusion assay was used. […] The effect of the test drug against tumoral cells could be measured by its inhibitory capacity against colony formation after the delivery of the compound, in different concentrations on an filter disk(4). A modified technique of this assay was used in order to investigate the antiproliferative activity of candidate compounds. Tumoral cells from solid tumors and ascitic lines were plated separately in a two layer agar matrix. Cell lines to be tested were suspended in an upper layer of 0.4% Noble agar (Difco#00142-01) in RPMI-1066 (Gibco#3201875) at a yield varying between 10^4 to 2×10^5 cells per 60 mm Petri dish. Plating efficiency was determined for each line in order to achieve an optimal number of colonies per dish. […] The bottom layer consisted of 0.8% Noble agar, 0.8% Tryptic Soy Broth (difco#0037001)in CMRL-1066/Fischer's. The bottom layers were used within 2 and 9 days of preparation. Plated dishes (bottom layer of agar, upper layer of cells and administered drug were incubated in humidified atmosphere at 37° C., 5% CO2 for 10-20 days depending upon the time necessary to observe adequate colonies (defined as a cell aggregate of more than 50 cells) both control and drug inhibited. Drugs were administered on a paper filter disk (Whatman No. 1) of 6.5 mm diameter placed on the upper layer at 1/3 distance from the edge of the dish. The anti-clonogenic activity of the compounds was measured as the zone of inhibition from the disk edge to the most proximal colonies. This zone of inhibition was checked on an inverted microscope (40×) and was measured with a micrometer mounted in the eyepiece. The ocular micrometer was calibrated with a stage micrometer set for a particular combination of ocular and objective lenses. […] We made a modification of the initial technique by not plating a solid tumor and a leukemia simultaneously in the same Petri dish. […] HUMAN TUMORS. […] LS180 (13) and BE1(14) were obtained from the Oncology Dept. of the Montreal General Hospital. […] Cell lines were routinely passaged twice a week by trypsinization and maintained in 25, or 75-sq. cm Falcon Plastic flasks at 37° C., 5% CO2 in humidified atmosphere. Both compounds were dissolved in DMSO (1 mg/100 ul) and brought to final volume (250 ul) with Millipore deionized sterile water. Further dilutions were made with […] volume of 25 ul of freshly prepared solution was placed on the filter disk and allowed to dry.

Another experiment has as its system P388. The experiment is described as follows: Soft agar colony formation disk diffusion assay. Type of experiment: cell-based, murine.
Excerpt: as §1

The next experiment deals with B16. As to the kind of experiment: Soft agar colony formation disk diffusion assay. Type of experiment: cell-based, murine.
Excerpt: as §1

In a further experiment the test system is M5076. As to the kind of experiment: Soft agar colony formation disk diffusion assay. It is filed as cell-based, murine.
Excerpt: as §1

A further experiment deals with P388/ADR. As to the kind of experiment: Soft agar colony formation disk diffusion assay. It is filed as cell-based, murine.
Excerpt: as §1

Read-outs that look alike come from different tables or passages of the source.

In general, IC50 refers to the concentration that inhibits the measured activity by half. For the molecule “3-(2-acetoxy-1-propeneketal)aceto-6-acetoxy-1-hydroxy-1,2,3,4-tetrahydro-(2-oxygen)naphtacene-5,12-dione and 3-(2-acetoxy-1-propeneketal)-aceto-11-acetoxy-1-hydroxy-1,2,3,4-tetrahydro-(2-oxygen)naphtacene-5,12-dione [BCH-710]”, the zone of inhibition in the experiment on MATB.WT (10 μg/DISK) was determined as 44.0 Zone Units; in the experiment on MATB.WT (100 μg/DISK), 366.0 ± 0.0 Zone Units; in the experiment on MATB/ADR (10 μg/DISK) it was 288.0 ± 21.9 Zone Units; in the experiment on MATB/ADR (100 μg/DISK), 350.0 ± 64.3 Zone Units; in the experiment with HT29 [2] (10 μg/DISK), 30.0 ± 8.4 Zone Units; in the experiment with HT29 [2] (100 μg/DISK), 69.0 ± 30.0 Zone Units. Also, the zone of inhibition in the experiment with P388 (10 μg/DISK) is 13.0 ± 0.0 Zone Units; with P388 (100 μg/DISK), 326.5 ± 43.1 Zone Units; with B16 (10 μg/DISK) it was 21.0 ± 2.1 Zone Units; in the experiment on B16 (100 μg/DISK), 21.0 ± 2.1 Zone Units; in the experiment on M5076 (10 μg/DISK), 209.5 ± 21.9 Zone Units; in the experiment on M5076 (100 μg/DISK), 533.0 ± 20.0 Zone Units. Further, the values for the zone of inhibition with P388/ADR (10 μg/DISK) and in the experiment on P388/ADR (100 μg/DISK) were 0 Zone Units and 110.0 ± 0.0 Zone Units, respectively. Further, the “cross resistance with adriamycin, MATB/ADR vs MATB.WT” value in the experiment on MATB/ADR is listed as “greater cytotoxicity in the resistant breast tumor cell line”. Further, the IC50 in the experiment on SKOV3 (SKOV3) came out at 3.98 µM; in the experiment on LOX, 3.51 µM; in the experiment on HT29 [1] (HT29), 1.79 µM; in the experiment with T47D it was 3.57 µM.
As for `CCOC(=O)[C@@H]1CC2=C(C(=O)c3cc4ccccc4c(O)c3C2=O)[C@@H](O[C@H]2C[C@H](NC(=O)C(F)(F)F)[C@H](O)[C@H](C)O2)O1` [BCH-681, (1'S,1R,3S)Ethyl[6-hydroxy-5,12-dioxo-1-(3'-trifuloroacetamido-1-daunosaminyl)-3,4,5,12-tetrahydroanthraceno(2,3-C)pyran-3-yl]formate], the zone of inhibition turned out to be 51.8 ± 4.3 Zone Units with MATB.WT (10 μg/DISK); 176.9 ± 8.6 Zone Units in the experiment on MATB.WT (100 μg/DISK); 54.9 ± 8.6 Zone Units in the experiment on MATB/ADR (10 μg/DISK); 244.0 ± 43.1 Zone Units in the experiment on MATB/ADR (100 μg/DISK); 106.7 ± 21.5 Zone Units with HT29 [2] (10 μg/DISK); 213.5 ± 43.1 Zone Units in the experiment on HT29 [2] (100 μg/DISK). The “cross resistance with adriamycin, MATB/ADR vs MATB.WT” value in the experiment with MATB/ADR is reported as “no cross resistance with adriamycin”. For the same molecule, the IC50 in the experiment with SKOV3 (Homo sapiens, SK-OV-3, SKOV3) was 6.02 µM; with LOX, 4.89 µM; in the experiment with HT29 [1] (Homo sapiens, HT-29, HT29), 1.72 µM; in the experiment with T47D (Homo sapiens) it was 8.15 µM.
`CCOC(=O)[C@H]1CC2=C(C(=O)c3cc4ccccc4c(O)c3C2=O)[C@H](O[C@H]2C[C@H](NC(=O)C(F)(F)F)[C@H](O)[C@H](C)O2)O1` [BCH-684, (1'S,1S,3R)Ethyl[6-hydroxy-5,12-dioxo-1-(3'-trifluoroacetamido-1-daunosaminyl)-3,4,5,12-tetrahydroanthraceno(2,3-C)pyran-3-yl]formate]: the zone of inhibition in the experiment with MATB.WT (10 μg/DISK) came to 131.3 ± 12.9 Zone Units; with MATB.WT (100 μg/DISK), 366.0 ± 172.5 Zone Units; in the experiment on MATB/ADR (10 μg/DISK), 122.0 ± 17.0 Zone Units; in the experiment on MATB/ADR (100 μg/DISK), 320.2 ± 107.8 Zone Units; in the experiment on HT29 [2] (10 μg/DISK), 137.2 ± 21.5 Zone Units; in the experiment with HT29 [2] (100 μg/DISK) it was 170.8 ± 86.2 Zone Units. The “cross resistance with adriamycin, MATB/ADR vs MATB.WT” value in the experiment with MATB/ADR was “no cross resistance with adriamycin”. In addition, the IC50 in the experiment with SKOV3 (Homo sapiens, SK-OV-3, SKOV3) was found to be 4.19 µM.
Regarding `CC(=O)Oc1c2c(c(O)c3ccccc13)C(=O)C1=C(C2=O)C(O)OC(C(C)=O)C1` (stereo not shown) [BCH-704, Methyl(11-acetoxy-1,6-dihydroxy-5,12-dioxo-3,4,5,12-tetrahydroanthraceno[2,3-c]pyran-3-yl)ketone], the zone of inhibition in the experiment with MATB.WT (10 μg/DISK) amounted to 198.5 ± 21.9 Zone Units; with MATB.WT (100 μg/DISK), 414.8 ± 25.8 Zone Units; in the experiment with MATB/ADR (10 μg/DISK), 320.2 ± 64.7 Zone Units; in the experiment with MATB/ADR (100 μg/DISK), 527.4 ± 72.9 Zone Units; with HT29 [2] (10 μg/DISK) it was 39.6 ± 12.9 Zone Units; in the experiment on HT29 [2] (100 μg/DISK), 152.5 ± 43.1 Zone Units. In addition, the “cross resistance with adriamycin, MATB/ADR vs MATB.WT” value in the experiment with MATB/ADR is recorded as “greater cytotoxicity in the resistant breast tumor cell line”. Further, the IC50 came to 16.4 µM in the experiment on SKOV3 (Homo sapiens, SK-OV-3, SKOV3); 28.3 µM in the experiment with LOX; 10.7 µM in the experiment with HT29 [1] (Homo sapiens, HT-29, HT29); 11.8 µM in the experiment with T47D (Homo sapiens).
For the molecule `C=CC1CC2=C(C(=O)c3cc4ccccc4c(O)c3C2=O)C(OC)O1` (stereo not shown) [BCH-712, 6-hydroxy-1-methoxy-1,2,3,4-tetrahydro-3-vinyl-(2-oxygen) naphthacene-5,12-dione], the zone of inhibition is 21.0 ± 4.3 Zone Units with MATB.WT (10 μg/DISK); 76.0 ± 21.2 Zone Units in the experiment on MATB.WT (100 μg/DISK); 0 Zone Units in the experiment with MATB/ADR (10 μg/DISK); 64.0 ± 4.2 Zone Units in the experiment on MATB/ADR (100 μg/DISK); 0 Zone Units in the experiment on HT29 [2] (10 μg/DISK); 55.0 ± 8.4 Zone Units with HT29 [2] (100 μg/DISK). Also, the zone of inhibition is recorded as 6.1 ± 0.0 Zone Units in the experiment with P388 (10 μg/DISK); 70.0 ± 21.2 Zone Units with P388 (100 μg/DISK); 0 Zone Units in the experiment with B16 (10 μg/DISK); 27.0 ± 4.2 Zone Units with B16 (100 μg/DISK); 0 Zone Units in the experiment on M5076 (10 μg/DISK); 158.0 ± 34.6 Zone Units in the experiment on M5076 (100 μg/DISK). In addition, the zone of inhibition in the experiment on P388/ADR (10 μg/DISK) came out at 0 Zone Units; with P388/ADR (100 μg/DISK), 42.5 ± 9.1 Zone Units. The “cross resistance with adriamycin, MATB/ADR vs MATB.WT” value in the experiment with MATB/ADR was “no cross resistance with adriamycin”.
